In article PMC12449377, “Psychedelic-like effects induced by 2,5-dimethoxy-4-iodoamphetamine, lysergic acid diethylamide, and psilocybin in male and female C57BL/6J mice” (Psychopharmacology, 2025):
Like-named read-outs stand apart in the source and are kept apart here.

Assays:
[1] = tested on: C57BL/6J mice; experiment: Head twitch response (HTR) in mice; assay type: in vivo, mouse; conditions: for HTR (total events) Mean: 30 min; for ED50: Mus musculus, sc; for Duration of HTR effect in the session: peak/active doses; for Duration of HTR effect in the session / Time of peak effects on HTR post drug administration: 30 min session; for Time of peak effects on HTR post drug administration / HTR ♀ Emax (95% CI) / HTR ♂ Emax (95% CI) / HTR ♂+♀ Emax (95% CI): s.c.; for Time of peak effects on HTR post drug administration: both sexes; for HTR ♀ Emax (95% CI) / HTR ♂ Emax (95% CI): top of regression fit
Description: Each drug was tested using groups of 12 mice per sex (i.e., 24 total mice per drug). Experimental sessions were conducted once every 1–2 weeks for 2 months per drug. Experimental sessions were spaced apart by at least 1 week to minimize the potential for tolerance to drug effects (Canal and Morgan [2012]; Darmani et al. [1990a]; de la Fuente Revenga et al. [2022]). Experiments were conducted during the light phase (1300–1700 local time; lights on = 0700 in a 12/12 light/dark cycle).
At 1–2 weeks prior to the beginning of experiments, mice were habituated to handling and receiving s.c. saline injections. On the day of an experiment, mice were acclimated to the testing room in their home cage for at least 30 min prior to the start of sessions. Prior to each session, mice were weighed, and resting body temperatures were recorded. Mice were then placed into experimental chambers for acclimation. Behavioral testing was carried out in TruScan mouse locomotor arenas equipped with photobeam arrays (Coulbourn Instruments, Holliston, MA, USA) that were modified with cylindrical inserts and transparent flooring to aid in semi-automated HTR detection as previously described (Glatfelter et al. [2022a]). After 5 min of acclimation, basal body temperature was recorded followed by s.c. injection of drug or vehicle, and mice were returned to test chambers for 30 min. Dose ranges for each drug were 0.03–10 mg/kg for DOI, 0.03–10 mg/kg for psilocybin, and 0.003–1 mg/kg for LSD. Mice were randomly assigned to specific doses at the beginning of the experiment and received different doses at each session.
During each session, locomotor activity was quantified via photobeam tracking of distance traveled in cm. Overhead GoPro Hero Black 7 video recordings (120 fps, 960p resolution) were analyzed using a commercially available software package from Clever Sys Inc. (Reston, VA, USA) for the measurement of HTR activity. Mouse body temperature was also collected post-session to calculate temperature change values (basal - post session temperature reading).
Concentration-response data were fit to a single site non-linear regression model. For the HTR studies, potencies were determined from the ascending limb of the dose-response curves using ED50 potency values from [agonist] vs. response (variable slope, four parameter) least squares fit non-linear regression analyses, whereas efficacy was defined by the top output parameter or Emax from the aforementioned analyses. […] Best-fit values for ED50 and Emax from non-linear regression analyses were compared by extra sum-of-squares F tests. Mean effects for each behavioral endpoint were compared using two-way ANOVA (dose x sex), followed by Sidak’s multiple comparisons post-hoc test. Mean effects for pooled mouse behavioral data were compared via Welch’s ANOVA with Dunnett’s T3 post-hoc test, comparing all doses to saline vehicle controls (0 mg/kg). Alpha was set to 0.05 for all analyses.

[2] = tested on: C57BL/6J mice; conditions: range over Table 1 and an earlier study; ref Glatfelter et al. ([2024b]); cited from earlier work
[3] = female mice, ascending limb of dose-response curve, read-out: HTR ♀ ED50 (95% CI)
[4] = male mice, ascending limb of dose-response curve, read-out: HTR ♂ ED50 (95% CI)
[5] = pooled male and female mice, read-out: HTR ♂+♀ ED50 (95% CI)

Row | SMILES | HTR (total events) Mean ([1]; 0.03 mg/kg s.c., female mice) | HTR (total events) Mean ([1]; 0.03 mg/kg s.c., male mice) | HTR (total events) Mean ([1]; 0.03 mg/kg s.c., pooled sexes) | HTR (total events) Mean ([1]; 0.1 mg/kg s.c., female mice) | HTR (total events) Mean ([1]; 0.1 mg/kg s.c., male mice) | HTR (total events) Mean ([1]; 0.1 mg/kg s.c., pooled sexes) | HTR (total events) Mean ([1]; 0.3 mg/kg s.c., female mice) | HTR (total events) Mean ([1]; 0.3 mg/kg s.c., male mice) | HTR (total events) Mean ([1]; 0.3 mg/kg s.c., pooled sexes) | HTR (total events) Mean ([1]; 1 mg/kg s.c., female mice) | HTR (total events) Mean ([1]; 1 mg/kg s.c., male mice) | HTR (total events) Mean ([1]; 1 mg/kg s.c., pooled sexes) | ED50 [1, 3] | ED50 [1, 4] | ED50 [1, 5] | Duration of HTR effect in the session [1] | Time of peak effects on HTR post drug administration [1] | HTR ♀ Emax (95% CI) ([1]; female mice) | HTR ♂ Emax (95% CI) ([1]; male mice) | HTR ♂+♀ Emax (95% CI) ([1]; pooled male and female mice) | further results
1 | CCN(CC)C(=O)[C@@H]1C=C2c3cccc4[nH]cc(c34)C[C@H]2N(C)C1 [LSD, lysergic acid diethylamide] | 24.2 total events | 29.7 total events | 27.2 total events | 43.5 total events | 43.7 total events | 43.6 total events | 55.8 total events | 45.0 total events | 50.4 total events | 38.0 total events | 26.2 total events | 32.1 total events | 0.051 mg/kg | 0.024 mg/kg | 0.035 mg/kg | trended to baseline levels by the end of the testing session | 5 to 10 min | 58 (50–68) HTR events | 46 (44–50) HTR events | 51 (46–60) HTR events | HTR (total events) Mean ([1]; 0.003 mg/kg s.c., female mice): 6.5 total events; HTR (total events) Mean ([1]; 0.003 mg/kg s.c., male mice): 6.3 total events; HTR (total events) Mean ([1]; 0.003 mg/kg s.c., pooled sexes): 6.4 total events; HTR (total events) Mean ([1]; 0.01 mg/kg s.c., female mice): 10.7 total events; HTR (total events) Mean ([1]; 0.01 mg/kg s.c., male mice): 13.5 total events; HTR (total events) Mean ([1]; 0.01 mg/kg s.c., pooled sexes): 12.1 total events; s.c. ED50 doses for inducing HTR in mice [2]: 0.035 to 0.039 mg/kg
2 | COc1cc(CC(C)N)c(OC)cc1I (centres unmarked) [DOI, 2,5-dimethoxy-4-iodoamphetamine] | 12.5 total events | 8.8 total events | 10.7 total events | 19.7 total events | 22.4 total events | 20.8 total events | 59.0 total events | 57.3 total events | 58.2 total events | 91.2 total events | 89.7 total events | 90.4 total events | 0.52 mg/kg | 0.3 mg/kg | 0.33 mg/kg | lasted throughout the entire 30 min session | 5 to 10 min | 131 (118–146) HTR events | 105 (93–118) HTR events | 111 (101–127) HTR events | HTR (total events) Mean ([1]; 3 mg/kg s.c., female mice): 108.8 total events; HTR (total events) Mean ([1]; 3 mg/kg s.c., male mice): 106.8 total events; HTR (total events) Mean ([1]; 3 mg/kg s.c., pooled sexes): 107.8 total events; HTR (total events) Mean ([1]; 10 mg/kg s.c., female mice): 148.7 total events; HTR (total events) Mean ([1]; 10 mg/kg s.c., male mice): 103.3 total events; HTR (total events) Mean ([1]; 10 mg/kg s.c., pooled sexes): 126.0 total events
